Laboratory results: patent US20050123603A1, “Natural menaquinone 7 compositions” (Natural ASA, priority 2003, published 2005)

Legend:
[1] = serum vitamin K (K1, MK-7) during 6-week daily supplementation with nattoK2 capsules or K1; type: in vivo, human
Description: (§1) An open study was conducted in which 12 volunteers were randomized in two groups receiving either 180 μg MK-7 (menaquinone 7, 0.27 μmol) or 150 μg K1 (0.33 μmol) per day. The MK-7 was obtained from 2 nattoK2 capsules (Natural ASA) per day, the K1 from a pharmacological preparation (Roche). The supplements were taken at 18.00 h of each day during the 6-week study period. Blood was taken between 08.00 and 09.00 h of days 0 (baseline), 3, 7, 14, 21, 28, 35, and 42. A non-treated control group (n=3) served as a reference group, with blood drawings on days 0, 14, 28, and 42.
(§2) Measurements: vitamin K1, MK-7, under-carboxylated osteocalcin (ucOC) and carboxylated osteocalcin (cOC).
(§3) Study population: 6 men and 6 women, aged 55-60 (women postmenopausal). Non-treated controls: 1 man, 2 women in the same age range.
MK-7 and K1 have different molecular weights (650 and 450, respectively). Therefore, all doses and concentrations were calculated on a molar basis. Since the daily dose of MK-7 from natto was 18% lower than that from K1 (0.27 and 0.33 μmol/day, respectively), it should be kept in mind that the expected results for natto capsules are similarly lower compared to those for K1. […] The normal ranges for K1 and MK-7 in non-treated subjects are between 500 and 1000 pmol/L (FIG. 5C). […] Due to the limited number of participants, the mean baseline levels in the various groups may differ.

[2] = test system: under-carboxylated osteocalcin (ucOC); experiment: serum under-carboxylated osteocalcin (ucOC) during 6-week supplementation; type: in vivo, human
Description: as §1, §2, §3

[3] = test system: carboxylated osteocalcin (cOC); experiment: serum carboxylated osteocalcin (cOC) during 6-week supplementation; type: in vivo, human; conditions: 6-week daily supplementation, K1 150 μg or 180 μg MK-7 from nattoK2, FIG. 8
Description: as §1, §2, §3

osteocalcin [4] = experiment: vitamin K status of bone, cOC/ucOC ratio, during 6-week supplementation; type: in vivo, human
Description: as §1, §2, §3
(§4) These values are needed to calculate the vitamin K-status in bone (the ratio cOC/ucOC) and to estimate the bone metabolic activity (cOC+ucOC). Here a remarkable difference between the effects of K1 and nattoK2 (i.e.: MK-7) was found: whereas cOC was increased by K1 supplementation, it was decreased by nattoK2. The importance of this finding will become clear from FIGS. 9 and 10.

osteocalcin [5] = experiment: bone turnover measured as ucOC+cOC during 6-week supplementation; type: in vivo, human
Description: as §1, §2, §3, §4

bone loss = conditions: postmenopausal women, intervention studies; cited from earlier work

CC1=C(C/C=C(\C)CCC[C@H](C)CCC[C@H](C)CCCC(C)C)C(=O)c2ccccc2C1=O [K1]
serum K1 level, plateau value ([1]; K1 150 μg (0.33 μmol) per day, blood taken about 15 h after intake, mean): around 2000 pmol/L
serum K1 level at 15 h after ingestion ([1]; K1 150 μg per day): near-baseline levels
time to plateau of serum K1 ([1]; K1 150 μg per day): within the first three days
increase in total vitamin K status relative to baseline (mean plateau value) ([1]; K1 150 μg per day, 6 weeks, FIG. 6): 1500 pmol/L
serum K1 level at baseline ([1]; K1 group, day 0, mean): 816 pmol/L
time to reach decreased ucOC value ([2]; K1 150 μg per day): within three days
serum ucOC after treatment ([2]; K1 150 μg per day, value reached within three days): 1.7 µg/L
serum ucOC at baseline ([2]; K1 group): 2.1 µg/L
treatment-induced change in serum carboxylated osteocalcin (cOC) [3]: increased
time to plateau levels of the cOC/ucOC ratio (osteocalcin [4]; K1 supplementation): 3 days
bone turnover measured as ucOC+cOC, end of regimen (osteocalcin [5]; K1 150 μg per day, 6 weeks): 5.33
bone turnover measured as ucOC+cOC, start of regimen (osteocalcin [5]; K1 group): 5.28
lower rate of bone loss in supplemented groups (bone loss): 40%

CC(C)=CCC/C(C)=C/CC/C(C)=C/CC/C(C)=C/CC/C(C)=C/CC/C(C)=C/CC/C(C)=C/CC1=C(C)C(=O)c2ccccc2C1=O [menaquinone 7, (all-E)-2-(3,7,11,15,19,23,27-Heptamethyl-2,6,10,14,18,22,26-octacosaheptaenyl)-3-methyl-1,4-naphthalenedione]
time at which mean cOC/ucOC ratio crosses the K1 curve (osteocalcin [4]; menaquinone 7 supplementation, ratio increased gradually, no levelling off): 5 week
